# Experimental data taken from patent US10765642B2, “Composition for preventing or treating muscle weakness-related diseases comprising sobrerol” (KOREA RESEARCH INSTITUTE OF BIOSCIENCE AND BIOTECHNOLOGY, priority 2015, dated 2020).
# Experiments:
# [1] = test system: tibialis anterior (TA) muscle fibers; test: muscle fiber diameter (laminin immunofluorescence of tibialis anterior sections) after exercise restriction; type: in vivo, mice; conditions: oral
# Protocol: (§1) A total of 45 male C57BL/6 mice at 5 weeks of age (Daehan BioLink) were used in this animal experiment. After 2 weeks of adaptation to the surrounding environment, sobrerol was orally administered twice daily since 7 weeks of age. The control group was administered with 200 μL of water/20 g of mouse, and sobrerol was orally administered at a ratio of 1:2:4 [8.8 mg/200 μL/20 g (mouse), 17.6 mg/200 μL/20 g (mouse) and 35.3 mg/200 μL/20 g (mouse)] to verify dose dependency. At 8 weeks of age, both hind limbs of the mice were immobilized for 10 days using a surgical stapler (Autosuture Royal 35W stapler). (A novel hindlimb immobilization procedure for studying skeletal muscle atrophy and recovery in mouse. J Appl Physiol 106: 2049-2059, 2009). After removing the surgical stapler, they were allowed to move again for 3 days (remobilization), and then exercise capability improvement-verification tests (treadmill, and grip tests) were conducted. In addition, after the exercise restriction in the Example 3-3, sections of the tibialis anterior (TA) were stained by immunofluorescence analysis using the antibodies against laminin, which is a protein existing at the periphery of muscle fibers, and the diameter of each muscle fiber was measured.
# [2] = test system: myogenin promoter; test: secreted MyoG luciferase assay system (myogenin promoter-secreted luciferase C2C12 myoblast line); type: cell-based; conditions: for luciferase activity increase as compared to the negative control: negative control (MeOH) set at 1
# From the text: To evaluate the myoblast differentiation-promoting capability of sobrerol, a secreted MyoG luciferase assay system was used (FIG. 1). Specifically, the promoter portion of myogenin, which is a protein whose expression is increased upon myogenesis, was cloned into a secreted luciferase vector (pMetLuc2-Reporter Vector, Clontech), and then the vector was transfected into myoblasts C2C12 to prepare a myogenin promoter-secreted luciferase C2C12 myoblast line capable of stably expressing the luciferase enzyme The differentiation degree of the myoblasts into myotube cells can be quantitatively verified through the system in which the luciferase enzymes are secreted into the medium as the myogenin promoter is activated. To induce differentiation into muscle cells, DMEM (Dulbecco's Modified Eagle Medium, Invitrogen) medium supplemented with 2% horse serum was added to the C2C12 myoblasts. Herein, the expressed MEF2 and MyoD bind to the myogenin promoter, and then the luciferase enzymes are expressed and secreted out of the cell. Since the secreted luciferase enzymes are present in the medium, it can be measured to verify the degree of myogenesis. […] Specific experimental methods are as follows. On the first day, the C2C12 cells prepared in the Example 1-1 were inoculated into a 96-well plate containing DMEM medium supplemented with 10% bovine serum (FBS) at a concentration of 5×10^3 cells/well. In the morning of the second day, the medium of the well plate was replaced with DMEM medium (Growth medium, GM) supplemented with 10% bovine serum, which is the same component. In the afternoon, the medium (GM) was collected. Then, each well was treated with 100 μL of DMEM medium (differentiation medium 1, DM1) supplemented with 2% horse serum diluted with the sobrerol at each concentration. On the third day, the DM1 medium was collected, and the wells were treated with the same medium as in the second day (DM2). On the fourth day, the DM2 was collected. The media containing the luciferase secreted in the differentiation process of C2C12 cells were collected starting from the growth medium (GM) to the first day differentiation medium (DM1) and the second day differentiation medium (DM2) as described above, and 5 μL of coelenterazine as a substrate was added to 50 μL of the collected medium containing the luciferase enzyme, and the generated light was measured using a luminometer. The myogenesis-promoting capability of sobrerol at each concentration was measured through digitization by subtracting the measured values of DM0 from the measured values of DM1 and DM2. […] Ready-To-Glow™ Secreted Luciferase Reporter Systems (Clontech) was used as the luciferase assay kit, and the experiment was repeated three times.
# [3] = test system: male C57BL/6 mice; test: muscle weight measurement after exercise restriction; type: in vivo; conditions: oral
# Protocol: as §1, with “As a result,” for “In addition, after”, “diameters” for “exercise restriction in the Example 3-3, sections”, “muscle fibers of the mice orally administered with sobrerol” for “tibialis anterior (TA)”, “larger than those of” for “stained by immunofluorescence analysis using”, “control group orally administered with distilled water (FIG. 11).” for “antibodies against laminin, which is a protein existing at the periphery of muscle fibers, and the diameter of each muscle fiber was measured.”
# [4] = test system: male C57BL/6 mice; test: treadmill test after hind limb immobilization and remobilization; type: in vivo; conditions: immobilized mice
# Protocol: A total of 45 male C57BL/6 mice at 5 weeks of age (Daehan BioLink) were used in this animal experiment. After 2 weeks of adaptation to the surrounding environment, sobrerol was orally administered twice daily since 7 weeks of age. The control group was administered with 200 μL of water/20 g of mouse, and sobrerol was orally administered at a ratio of 1:2:4 [8.8 mg/200 μL/20 g (mouse), 17.6 mg/200 μL/20 g (mouse) and 35.3 mg/200 μL/20 g (mouse)] to verify dose dependency. At 8 weeks of age, both hind limbs of the mice were immobilized for 10 days using a surgical stapler (Autosuture Royal 35W stapler). (A novel hindlimb immobilization procedure for studying skeletal muscle atrophy and recovery in mouse. J Appl Physiol 106: 2049-2059, 2009). After removing the surgical stapler, they were allowed to move again for 3 days (remobilization), and then exercise capability improvement-verification tests (treadmill, and grip tests) were conducted. The equipment shown in FIG. 8 was used for the treadmill test. The treadmill test was conducted as shown in FIG. 9 with reference to the treadmill protocol of used for the treadmill test (DOI 10.1016/j.cell.2006.11.013_Cell, Volume 127 Supplemental Data). One day prior to the treadmill test, the equipment was warmed up at a rate of 6 m/min for 10 minutes. At the starting point, electric stimulation was configured to flow so that the mice were forced to exercise. The next day, the test was started at a speed of 8 m/min and the speed was increased by 2 m/min every 20 minutes. One hour after the start of the treadmill test, the speed of 12 m/min was maintained, and the angle was increased by 5° and the electric stimulation was turned off. After 20 minutes, the angle of 5° was maintained but only the speed was increased by 2 m/min. Under the above condition, the running times of the mice were measured and recorded.
compound,measurement,setting,value
CC1=CCC(C(C)(C)O)CC1O (stereo not drawn) [sobrerol],diameters of the muscle fibers (tibialis anterior) versus distilled water control,[1],larger
same,luciferase activity increase as compared to the negative control,"[2]; 0.01 nM sobrerol, C2C12",≥ 1.2 fold
same,luciferase activity versus control group,"[2]; 0.01 nM to 10 μM sobrerol, C2C12",higher luciferase activity than the control group
same,luciferase activity increase as compared to the negative control,"[2]; 0.1 nM sobrerol, C2C12",about 1.5 fold
same,concentration with the greatest differentiation-promoting capability,[2]; C2C12 myogenin promoter luciferase,0.1 nM
same,weight of extensor digitorum longus (EDL),[3],significantly increased
same,weight of gastrocnemius (GA),[3],significantly increased
same,weight of soleus,[3],significantly increased
same,weight of tibialis anterior (TA),[3],significantly increased
same,treadmill running time versus group administered with distilled water,"[4]; 8.8 mg/kg oral, still shorter than non-immobilization group",slightly longer
same,treadmill running time versus non-immobilization group,[4]; 17.6 mg/kg oral,almost similar to the non-immobilization group
same,treadmill running time versus non-immobilization group,[4]; 35.3 mg/kg oral,longer as compared to the non-immobilization group
